# Paper PMC5218480 (PLoS ONE, 2017)
# Test system: MV-4-11 cells
# Experiment: Gene expression microarray analysis (Affymetrix PrimeView) and GSEA
# Assay type: cell-based, human
# Set-up: RFU PODN (11730768_x_at) / Fold change /veh PODN (11730768_x_at) / RFU LINC00158 (11744669_a_at) / Fold change /veh LINC00158 (11744669_a_at) / RFU DUSP10 (11751237_a_at) / Fold change /veh DUSP10 (11751237_a_at) / RFU ID3 (11757404_x_at) / Fold change /veh ID3 (11757404_x_at) / RFU PLEKHG5 (11737974_s_at) / Fold change /veh PLEKHG5 (11737974_s_at) / RFU LRRC4B (11730491_at) / Fold change /veh LRRC4B (11730491_at) / RFU GIMAP4 (11747438_a_at) / Fold change /veh GIMAP4 (11747438_a_at) / RFU KRT8 (11758183_x_at) / Fold change /veh KRT8 (11758183_x_at) / RFU CNN1 (11734310_a_at) / Fold change /veh CNN1 (11734310_a_at) / RFU VPS37D (11726825_at) / Fold change /veh VPS37D (11726825_at) / RFU C10orf10 (11716522_x_at) / Fold change /veh C10orf10 (11716522_x_at) / RFU KIR2DL2 /// KIR2DL4 /// KIR2DL5A /// KIR2DL5B /// KIR2DS1 /// KIR2DS2 /// KIR2DS3 /// KIR2DS4 /// KIR3DL3 /// KIR3DL3 /// KIR3DS1 (11738374_at) / Fold change /veh KIR2DL2 /// KIR2DL4 /// KIR2DL5A /// KIR2DL5B /// KIR2DS1 /// KIR2DS2 /// KIR2DS3 /// KIR2DS4 /// KIR3DL3 /// KIR3DL3 /// KIR3DS1 (11738374_at) / RFU C1QL1 (11718748_at) / Fold change /veh C1QL1 (11718748_at) / RFU TMPRSS4 (11747572_a_at) / Fold change /veh TMPRSS4 (11747572_a_at) / RFU HAMP (11756126_x_at) / Fold change /veh HAMP (11756126_x_at) / RFU RNFT2 (11725882_a_at) / Fold change /veh RNFT2 (11725882_a_at) / RFU NR4A2 (11747474_a_at) / Fold change /veh NR4A2 (11747474_a_at) / RFU ABCC12 (11746883_a_at) / Fold change /veh ABCC12 (11746883_a_at) / RFU TMEM136 (11760407_x_at) / Fold change /veh TMEM136 (11760407_x_at) / RFU CLDN22 /// WWC2 (11732394_at) / Fold change /veh CLDN22 /// WWC2 (11732394_at) / RFU HLA-DPB1 (11760878_x_at) / Fold change /veh HLA-DPB1 (11760878_x_at) / RFU SPINT1 (11716480_a_at) / Fold change /veh SPINT1 (11716480_a_at) / RFU GAP43 (11754022_s_at) / Fold change /veh GAP43 (11754022_s_at) / RFU A4GNT (11735810_at) / Fold change /veh A4GNT (11735810_at) / RFU PRB3 (11715151_x_at) / Fold change /veh PRB3 (11715151_x_at) / RFU TUBB4B (11761932_at) / Fold change /veh TUBB4B (11761932_at) / RFU CAPN14 (11732068_a_at) / Fold change /veh CAPN14 (11732068_a_at) / RFU TMCC2 (11721928_a_at) / Fold change /veh TMCC2 (11721928_a_at) / RFU IRGQ (11745062_a_at) / Fold change /veh IRGQ (11745062_a_at) / RFU FAM174B (11720279_a_at) / Fold change /veh FAM174B (11720279_a_at) / RFU TMPRSS4 (11748680_a_at) / Fold change /veh TMPRSS4 (11748680_a_at) / RFU FAM212B (11763350_a_at) / Fold change /veh FAM212B (11763350_a_at) / RFU PLEKHG5 (11743358_a_at) / Fold change /veh PLEKHG5 (11743358_a_at) / RFU ZSCAN30 (11745921_a_at) / Fold change /veh ZSCAN30 (11745921_a_at) / RFU CMKLR1 (11741424_a_at) / Fold change /veh CMKLR1 (11741424_a_at) / RFU LOC101060620 /// MAPK8IP1 (11723275_at) / Fold change /veh LOC101060620 /// MAPK8IP1 (11723275_at) / RFU SPTSSB (11747773_x_at) / Fold change /veh SPTSSB (11747773_x_at) / RFU PRSS12 (11739890_at) / Fold change /veh PRSS12 (11739890_at) / RFU BIN1 (11741810_x_at) / Fold change /veh BIN1 (11741810_x_at) / RFU WNT11 (11732464_a_at) / Fold change /veh WNT11 (11732464_a_at) / RFU C10orf10 (11716521_a_at) / Fold change /veh C10orf10 (11716521_a_at) / RFU C5orf56 (11738089_at) / Fold change /veh C5orf56 (11738089_at) / RFU CYB561 (11721691_x_at) / Fold change /veh CYB561 (11721691_x_at) / RFU ANKRD19P (11752326_a_at) / Fold change /veh ANKRD19P (11752326_a_at) / RFU OR2T12 /// OR2T33 /// OR2T8 (11738714_s_at) / Fold change /veh OR2T12 /// OR2T33 /// OR2T8 (11738714_s_at) / RFU VCAN (11748164_a_at) / Fold change /veh VCAN (11748164_a_at) / RFU JSRP1 (11732532_at) / Fold change /veh JSRP1 (11732532_at) / RFU KRTAP10-11 (11738290_x_at) / Fold change /veh KRTAP10-11 (11738290_x_at) / RFU MYO3A (11730013_a_at) / Fold change /veh MYO3A (11730013_a_at) / RFU EBF3 (11725865_a_at) / Fold change /veh EBF3 (11725865_a_at) / RFU CAMK2N1 (11719241_x_at) / Fold change /veh CAMK2N1 (11719241_x_at) / RFU C5orf56 (11738088_a_at) / Fold change /veh C5orf56 (11738088_a_at) / RFU OLFML3 (11715873_a_at) / Fold change /veh OLFML3 (11715873_a_at) / RFU LOC100653217 /// NTM (11731650_a_at) / Fold change /veh LOC100653217 /// NTM (11731650_a_at) / RFU MAPK11 (11762145_a_at) / Fold change /veh MAPK11 (11762145_a_at) / RFU FIZ1 (11724087_x_at) / Fold change /veh FIZ1 (11724087_x_at) / RFU OASL (11726364_x_at) / Fold change /veh OASL (11726364_x_at) / RFU SOX15 (11748057_x_at) / Fold change /veh SOX15 (11748057_x_at) / RFU CD79A (11719716_a_at) / Fold change /veh CD79A (11719716_a_at) / RFU HIST1H1D (11736915_at) / Fold change /veh HIST1H1D (11736915_at) / RFU CASKIN2 (11723855_a_at) / Fold change /veh CASKIN2 (11723855_a_at) / RFU LOC730098 (11760151_x_at) / Fold change /veh LOC730098 (11760151_x_at) / RFU OR4N2 (11742367_at) / Fold change /veh OR4N2 (11742367_at) / RFU PRRT2 (11749266_a_at) / Fold change /veh PRRT2 (11749266_a_at) / RFU SNX32 (11753110_a_at) / Fold change /veh SNX32 (11753110_a_at) / RFU CDHR5 (11726645_a_at) / Fold change /veh CDHR5 (11726645_a_at) / RFU RCAN1 (11760418_a_at) / Fold change /veh RCAN1 (11760418_a_at) / RFU FAM167A (11723789_a_at) / Fold change /veh FAM167A (11723789_a_at) / RFU FAM26E (11764081_at) / Fold change /veh FAM26E (11764081_at) / RFU ISYNA1 (11749810_s_at) / Fold change /veh ISYNA1 (11749810_s_at) / RFU ACY1 (11761880_at) / Fold change /veh ACY1 (11761880_at) / RFU 11764098_at / Fold change /veh 11764098_at / RFU SAMD14 (11745864_x_at) / Fold change /veh SAMD14 (11745864_x_at) / RFU NPB (11741838_a_at) / Fold change /veh NPB (11741838_a_at) / RFU TMPRSS6 (11731388_a_at) / Fold change /veh TMPRSS6 (11731388_a_at) / RFU KRTAP10-2 (11738614_at) / Fold change /veh KRTAP10-2 (11738614_at) / RFU ARHGAP8 /// PRR5-ARHGAP8 (11727945_x_at) / Fold change /veh ARHGAP8 /// PRR5-ARHGAP8 (11727945_x_at) / RFU KRTAP5-7 /// NADSYN1 (11734609_at) / Fold change /veh KRTAP5-7 /// NADSYN1 (11734609_at) / RFU RASL12 (11751679_a_at) / Fold change /veh RASL12 (11751679_a_at) / RFU CDKN2B (11736163_a_at) / Fold change /veh CDKN2B (11736163_a_at) / RFU PRF1 (11729649_at) / Fold change /veh PRF1 (11729649_at) / RFU, ZNF638 /// ZNF638-IT1 / Fold change vs veh, ZNF638 /// ZNF638-IT1 / RFU, PANK3 / Fold change vs veh, PANK3 / RFU, SH3YL1 / Fold change vs veh, SH3YL1 / RFU, ZEB2 / Fold change vs veh, ZEB2 / RFU, NRIP1 / Fold change vs veh, NRIP1 / RFU, PTTG1IP / Fold change vs veh, PTTG1IP / RFU, CAPN2 / Fold change vs veh, CAPN2 / RFU, MED14 / Fold change vs veh, MED14 / RFU, SNORA58 / Fold change vs veh, SNORA58 / RFU, C1orf63 / Fold change vs veh, C1orf63 / RFU, LRRFIP1 / Fold change vs veh, LRRFIP1 / RFU, NDUFAF7 / Fold change vs veh, NDUFAF7 / RFU, SLC12A2 / Fold change vs veh, SLC12A2 / RFU, IBTK / Fold change vs veh, IBTK / RFU, ESF1 / Fold change vs veh, ESF1 / Fold change vs veh, TMEM50B / RFU, TAOK1 / Fold change vs veh, TAOK1 / RFU, ACBD3 / Fold change vs veh, ACBD3 / RFU, TMA16 / Fold change vs veh, TMA16 / RFU, RWDD3 / Fold change vs veh, RWDD3 / RFU, BCAT1 / Fold change vs veh, BCAT1 / RFU, EDEM3 / Fold change vs veh, EDEM3 / RFU, TMEM33 / Fold change vs veh, TMEM33 / RFU, WDR75 / Fold change vs veh, WDR75 / RFU, AHCTF1 / Fold change vs veh, AHCTF1 / RFU, TFRC / Fold change vs veh, TFRC / RFU, ZDHHC17 / Fold change vs veh, ZDHHC17 / RFU, NOM1 / Fold change vs veh, NOM1 / RFU, ARL8B / Fold change vs veh, ARL8B / RFU, ZBTB11 / Fold change vs veh, ZBTB11 / RFU, TAMM41 / Fold change vs veh, TAMM41 / RFU, KIAA1704 /// LOC100996395 / Fold change vs veh, KIAA1704 /// LOC100996395 / RFU, ING1 / Fold change vs veh, ING1 / RFU, TRMT61B / Fold change vs veh, TRMT61B / RFU, FUBP3 / Fold change vs veh, FUBP3 / RFU, TP53 / Fold change vs veh, TP53 / RFU, TNKS2 / Fold change vs veh, TNKS2 / RFU, ZFP14 / Fold change vs veh, ZFP14 / RFU, ACTR2 / Fold change vs veh, ACTR2 / RFU, PPP3R1 / Fold change vs veh, PPP3R1 / RFU, PIK3R1 / Fold change vs veh, PIK3R1 / RFU, HNRNPA1 / Fold change vs veh, HNRNPA1 / RFU, RNF170 / Fold change vs veh, RNF170 / RFU, ZNF28 / Fold change vs veh, ZNF28 / RFU, RNGTT / Fold change vs veh, RNGTT / RFU, OGT / Fold change vs veh, OGT / RFU, BRD1 / Fold change vs veh, BRD1 / RFU, MARS / Fold change vs veh, MARS / RFU, ZNF655 / Fold change vs veh, ZNF655 / RFU, FAHD1 / Fold change vs veh, FAHD1 / RFU, BDP1 / Fold change vs veh, BDP1 / RFU, LRRCC1 / Fold change vs veh, LRRCC1 / RFU, ARID1A / Fold change vs veh, ARID1A / RFU, ZNF146 / Fold change vs veh, ZNF146 / RFU, ZNF330 / Fold change vs veh, ZNF330 / RFU, GPN3 / Fold change vs veh, GPN3 / RFU, C9orf123 / Fold change vs veh, C9orf123 / RFU, N4BP2L2 / Fold change vs veh, N4BP2L2 / RFU, ARFIP1 / Fold change vs veh, ARFIP1 / RFU, FAM179B / Fold change vs veh, FAM179B / RFU, BCL10 / Fold change vs veh, BCL10 / RFU, UHRF1BP1L / Fold change vs veh, UHRF1BP1L / RFU, BET1 / Fold change vs veh, BET1 / RFU, CNOT2 / Fold change vs veh, CNOT2 / RFU, ZNF268 / Fold change vs veh, ZNF268 / Fold change vs veh, ZNF507 / RFU, DGCR2 / Fold change vs veh, DGCR2 / RFU, WDSUB1 / Fold change vs veh, WDSUB1 / Fold change vs veh, HSP90B1 /// MIR3652 / RFU, ADSS / Fold change vs veh, ADSS / RFU, GK / Fold change vs veh, GK / RFU, ZNF148 / Fold change vs veh, ZNF148 / RFU, TAF9 / Fold change vs veh, TAF9 / RFU, SLC1A5 / Fold change vs veh, SLC1A5 / RFU, SLMO2 / Fold change vs veh, SLMO2 / RFU, ABCC4 / Fold change vs veh, ABCC4 / RFU, LOC101060439 /// RAP1B / Fold change vs veh, LOC101060439 /// RAP1B / RFU, RFX7 / Fold change vs veh, RFX7 / RFU, GTPBP10 / Fold change vs veh, GTPBP10 / RFU, CNEP1R1 / Fold change vs veh, CNEP1R1 / RFU, BIVM-ERCC5 /// ERCC5 / Fold change vs veh, BIVM-ERCC5 /// ERCC5 / RFU, ILF3 / Fold change vs veh, ILF3 / RFU 11762660_at / Fold change /veh 11762660_at / RFU VCAN (11757783_s_at) / Fold change /veh VCAN (11757783_s_at) / RFU DDX43 (11728927_at) / Fold change /veh DDX43 (11728927_at) / RFU KRT8 (11758188_x_at) / Fold change /veh KRT8 (11758188_x_at) / RFU NKD1 (11759106_at) / Fold change /veh NKD1 (11759106_at) / RFU SRD5A1 (11742802_a_at) / Fold change /veh SRD5A1 (11742802_a_at) / RFU TPSAB1 /// TPSB2 (11721975_s_at) / Fold change /veh TPSAB1 /// TPSB2 (11721975_s_at) / RFU GSTM3 (11746129_a_at) / Fold change /veh GSTM3 (11746129_a_at) / RFU IL23R (11737362_x_at) / Fold change /veh IL23R (11737362_x_at) / RFU TMEM51 (11727254_a_at) / Fold change /veh TMEM51 (11727254_a_at) / RFU PIWIL2 (11732686_x_at) / Fold change /veh PIWIL2 (11732686_x_at) / RFU ORM1 (11744905_x_at) / Fold change /veh ORM1 (11744905_x_at) / RFU CCDC152 (11743942_at) / Fold change /veh CCDC152 (11743942_at) / RFU ECM1 (11717891_a_at) / Fold change /veh ECM1 (11717891_a_at) / RFU IL23R (11748794_a_at) / Fold change /veh IL23R (11748794_a_at) / RFU TNFAIP8L3 (11732012_x_at) / Fold change /veh TNFAIP8L3 (11732012_x_at) / RFU MBOAT4 (11741988_at) / Fold change /veh MBOAT4 (11741988_at) / RFU 11764193_at / Fold change /veh 11764193_at / RFU TMEM53 (11763286_at) / Fold change /veh TMEM53 (11763286_at) / RFU MAGEB2 (11727129_at) / Fold change /veh MAGEB2 (11727129_at) / RFU TMEM200A (11744735_a_at) / Fold change /veh TMEM200A (11744735_a_at) / RFU CCDC152 (11751479_a_at) / Fold change /veh CCDC152 (11751479_a_at) / RFU FAM211A (11726209_a_at) / Fold change /veh FAM211A (11726209_a_at) / RFU RGS16 (11746705_a_at) / Fold change /veh RGS16 (11746705_a_at) / RFU VCAN (11755009_s_at) / Fold change /veh VCAN (11755009_s_at) / RFU RHOB (11743442_s_at) / Fold change /veh RHOB (11743442_s_at) / RFU RGS16 (11720943_a_at) / Fold change /veh RGS16 (11720943_a_at) / RFU RGS16 (11720944_at) / Fold change /veh RGS16 (11720944_at) / RFU, VPS4B / Fold change vs veh, VPS4B / RFU, CREB1 / Fold change vs veh, CREB1 / RFU, DNAJC13 / Fold change vs veh, DNAJC13 / RFU, GNAQ / Fold change vs veh, GNAQ / RFU, CDK5R1 / Fold change vs veh, CDK5R1 / RFU, ZRANB3 / Fold change vs veh, ZRANB3 / RFU, CUL4A / Fold change vs veh, CUL4A / RFU, CCNY / Fold change vs veh, CCNY / RFU, UFL1 / Fold change vs veh, UFL1 / RFU, COG3 / Fold change vs veh, COG3 / RFU, DIAPH2 / Fold change vs veh, DIAPH2 / RFU, SKA2 / Fold change vs veh, SKA2 / RFU, AFF3 / Fold change vs veh, AFF3 / RFU, LMF1 / Fold change vs veh, LMF1 / RFU, IPO11 / Fold change vs veh, IPO11 / RFU, DFFB / Fold change vs veh, DFFB / RFU, FOXP1 / Fold change vs veh, FOXP1 / RFU, CARD8 / Fold change vs veh, CARD8 / RFU, STRN3 / Fold change vs veh, STRN3 / RFU, ADK / Fold change vs veh, ADK / RFU, RASSF2 / Fold change vs veh, RASSF2 / RFU, WIPF1 / Fold change vs veh, WIPF1 / RFU, LARP1B / Fold change vs veh, LARP1B / RFU, RASA1 / Fold change vs veh, RASA1 / RFU, RB1 / Fold change vs veh, RB1 / RFU, PPFIA1 / Fold change vs veh, PPFIA1 / RFU, MAT2A / Fold change vs veh, MAT2A / RFU, CCT5 / Fold change vs veh, CCT5 / RFU, WDR92 / Fold change vs veh, WDR92 / RFU, CUX1 / Fold change vs veh, CUX1 / RFU, TTC7A / Fold change vs veh, TTC7A / RFU, TMEM135 / Fold change vs veh, TMEM135 / RFU, DEPTOR / Fold change vs veh, DEPTOR / RFU, CPM / Fold change vs veh, CPM / RFU, DNAJB6 / Fold change vs veh, DNAJB6 / RFU, CACNA2D3 / Fold change vs veh, CACNA2D3 / RFU, DTX4 / Fold change vs veh, DTX4 / RFU, TFCP2 / Fold change vs veh, TFCP2 / RFU, GMCL1 /// GMCL1P1 / Fold change vs veh, GMCL1 /// GMCL1P1 / RFU, AEBP2 / Fold change vs veh, AEBP2 / RFU, SNHG1 /// SNORD22 /// SNORD25 /// SNORD26 /// SNORD27 /// SNORD28 /// SNORD29 /// SNORD31 / Fold change vs veh, SNHG1 /// SNORD22 /// SNORD25 /// SNORD26 /// SNORD27 /// SNORD28 /// SNORD29 /// SNORD31 / Fold change (Aza/veh), C12orf56 (ProbeSet 11735607_a_at) / Fold change (ACY-1035/veh), C12orf56 (ProbeSet 11735607_a_at) / Fold change (Aza/veh), FGFR1OP (ProbeSet 11751329_s_at) / Fold change (ACY-1035/veh), FGFR1OP (ProbeSet 11751329_s_at) / Fold change (Aza/veh), VPS36 (ProbeSet 11739960_a_at) / Fold change (ACY-1035/veh), VPS36 (ProbeSet 11739960_a_at) / RFU SYPL1 (11715823_x_at) / Fold change /veh SYPL1 (11715823_x_at) / RFU IGFBP7 (11715501_s_at) / Fold change /veh IGFBP7 (11715501_s_at) / RFU REEP3 (11722064_at) / Fold change /veh REEP3 (11722064_at) / RFU IGLL1 (11728026_x_at) / Fold change /veh IGLL1 (11728026_x_at): dose or concentration left out as unconfirmed
# Settings: ProbeSet 11719493_s_at; LIST B
smiles,measurement,value
Nc1ncn([C@@H]2O[C@H](CO)[C@@H](O)[C@H]2O)c(=O)n1 [azacitidine],"Fold change vs veh, TAF9",1.00
